Results as given in patent US20140106967A1, “AUXIN PLANT GROWTH REGULATORS” (The Governors of The University of Alberta, priority 2011, published 2014).

System: pea plants cv. 'Carneval'
Test: Growth chamber experiment 2, pea 'Carneval' sprayed with 4-ME-IAA: peduncle/pedicel growth and seed yield, with or without heat stress (Tables P3-P12)
Format: in vivo, Pisum sativum L.
Method: For growth chamber experiment, seeds of ‘Carneval’ were planted at an approximate depth of 2.5 cm in 3-L plastic pots (4 seeds per pot and thinned to 2 plants per pot after approximately 2 weeks) in 1:1 Sunshine #4 potting mix (Sun Gro Horticulture, Vancouver, Canada) and sand. The experiment was arranged in a completely randomized design and grown at the University of Alberta in a growth chamber set at 19° C./17° C. (day/night) with a 16/8-h photoperiod under cool-white fluorescent lights (54W/835/HO high fluorescent bulbs, Phillips, Holland; 350 μE m^2 s^−2). For the heat stress treatment, plants were placed in a separate growth chamber with a 16/8-h photoperiod under cool-white fluorescent lights (F54/15/835/HO high fluorescent bulbs, Phillips, Holland) for 4 days where the temperature was cycled over a 24 hr period as follows: 33° C. air temperature for 6 hours per day (between 11:00 and 17:00 hrs) for 4 days during the light cycle; the remainder of the light cycle was maintained at a 22° C. air temperature; the dark cycle was maintained at 19° C. After the 4 day heat treatment, the plants were returned to the same growth chamber they were originally grown in, where they were taken to maturity.
For experiment 2, aqueous 4-methyl-indole-3-acetic acid (4-ME-IAA) solutions at 1×10^−7, 1×10^−6, 1×10^−5, or 1×10^−4 M in 0.1% (v/v) Tween 80 or aqueous 0.1% (v/v) Tween 80 (control) were applied as a spray to the entire plant to cover when the first flowering node of the main stem was near or at anthesis. In addition to the application at the timing cited above, one application of 4-ME-IAA at 1×10^−6 M or 1×10^−5 M was made when the floral buds were tightly clustered inside the stipule leaves at the stem apex (floral buds not visible outside of stipule leaves; designated the ‘Early’ treatment). In the heat stress treatment, the hormone or control treatment application was completed 16 hrs prior to the initiation of the first heat-stress cycle. The length and diameter (measured mid-length) of the lower and upper peduncles and pedicels of the inflorescence with two pods (or the lower peduncle and pedicel if a single pod node) at the first, second, third and fourth flowering nodes of the main stem of pea plants were determined for hormone-treated and control plants. Standard error of the mean (SE) was calculated for the means of all data for a measure of statistical significance in comparing treatment means.

[1] = 1×10^−4 M, applied near or at anthesis, no heat stress
[2] = 1×10^−4 M, first flowering node, heat stress (33° C. 6 h/day, 4 days)
[3] = 1×10^−4 M, first flowering node, no heat stress
[4] = 1×10^−4 M, fourth flowering node, heat stress (33° C. 6 h/day, 4 days)
[5] = 1×10^−4 M, fourth flowering node, no heat stress
[6] = 1×10^−4 M, heat stress (33° C. 6 h/day, 4 days)
[7] = 1×10^−4 M, second flowering node, heat stress (33° C. 6 h/day, 4 days)
[8] = 1×10^−4 M, second flowering node, no heat stress
[9] = 1×10^−4 M, third flowering node, heat stress (33° C. 6 h/day, 4 days)
[10] = 1×10^−4 M, third flowering node, no heat stress
[11] = 1×10^−5 M, applied near or at anthesis, no heat stress
[12] = 1×10^−5 M, first flowering node, heat stress (33° C. 6 h/day, 4 days)
[13] = 1×10^−5 M, first flowering node, no heat stress
[14] = 1×10^−5 M, fourth flowering node, heat stress (33° C. 6 h/day, 4 days)
[15] = 1×10^−5 M, fourth flowering node, no heat stress
[16] = 1×10^−5 M, heat stress (33° C. 6 h/day, 4 days)
[17] = 1×10^−5 M, second flowering node, heat stress (33° C. 6 h/day, 4 days)
[18] = 1×10^−5 M, second flowering node, no heat stress
[19] = 1×10^−5 M, third flowering node, heat stress (33° C. 6 h/day, 4 days)
[20] = 1×10^−5 M, third flowering node, no heat stress
[21] = 1×10^−6 M, applied near or at anthesis, no heat stress
[22] = 1×10^−6 M, first flowering node, heat stress (33° C. 6 h/day, 4 days)

## Cc1cccc2[nH]cc(CC(=O)O)c12 [4-ME-IAA, 4-methyl-indole-3-acetic acid]
[1]
  Ratio of seed number on main stem to lateral stems: 4.6 ± 1.1
  Seed number per plant: 56.7 ± 3.6
  Seed weight per plant: 14.0 ± 1.0 g
  Weight per seed: 0.247 ± 0.006 g
  increase in seed yield (seed weight per plant) vs control: 61%
[2]
  Lower Pedicel Length: 7.63 ± 0.46 mm
  Lower Pedicel diameter: 1.58 ± 0.09 mm
  Lower Peduncle Length: 52.22 ± 4.26 mm
  Lower Peduncle diameter: 1.71 ± 0.06 mm
  Upper Pedicel Length: 7.00 ± 0.45 mm
  Upper Pedicel diameter: 1.6 ± 0.07 mm
  Upper Peduncle Length: 17.00 ± 1.37 mm
  Upper Peduncle diameter: 1.44 ± 0.07 mm
[3]
  Lower Pedicel Length: 8.50 ± 0.37 mm
  Lower Pedicel diameter: 1.73 ± 0.05 mm
  Lower Peduncle Length: 69.70 ± 4.21 mm
  Lower Peduncle diameter: 1.73 ± 0.07 mm
  Upper Pedicel Length: 8.10 ± 0.43 mm
  Upper Pedicel diameter: 1.54 ± 0.05 mm
  Upper Peduncle Length: 15.20 ± 1.36 mm
  Upper Peduncle diameter: 1.44 ± 0.03 mm
[4]
  Lower Pedicel Length: 7.00 ± 0.41 mm
  Lower Pedicel diameter: 1.45 ± 0.11 mm
  Lower Peduncle Length: 25.50 ± 3.97 mm
  Lower Peduncle diameter: 1.38 ± 0.10 mm
  Upper Pedicel Length: 7.00 ± 0.0 mm
  Upper Pedicel diameter: 1.33 ± 0.15 mm
  Upper Peduncle Length: 14.50 ± 0.50 mm
  Upper Peduncle diameter: 1.17 ± 0.02 mm
[5]
  Lower Pedicel Length: 8.44 ± 0.23 mm
  Lower Pedicel diameter: 1.42 ± 0.05 mm
  Lower Peduncle Length: 41.00 ± 3.24 mm
  Lower Peduncle diameter: 1.36 ± 0.06 mm
  Upper Pedicel Length: 8.22 ± 0.14 mm
  Upper Pedicel diameter: 1.36 ± 0.06 mm
  Upper Peduncle Length: 16.67 ± 0.39 mm
  Upper Peduncle diameter: 1.17 ± 0.04 mm
[6]
  Ratio of seed number on main stem to lateral stems: 2.1 ± 0.4
  Seed number plant: 55.6 ± 6.2
  Seed weight per per plant: 14.5 ± 1.7 g
  Weight per seed: 0.261 ± 0.009 g
[7]
  Lower Pedicel Length: 7.56 ± 0.38 mm
  Lower Pedicel diameter: 1.56 ± 0.06 mm
  Lower Peduncle Length: 40.33 ± 4.51 mm
  Lower Peduncle diameter: 1.63 ± 0.04 mm
  Upper Pedicel Length: 7.25 ± 0.25 mm
  Upper Pedicel diameter: 1.54 ± 0.05 mm
  Upper Peduncle Length: 16.88 ± 1.52 mm
  Upper Peduncle diameter: 1.29 ± 0.04 mm
[8]
  Lower Pedicel Length: 8.30 ± 0.47 mm
  Lower Pedicel diameter: 1.65 ± 0.05 mm
  Lower Peduncle Length: 55.60 ± 4.08 mm
  Lower Peduncle diameter: 1.67 ± 0.06 mm
  Upper Pedicel Length: 8.3 ± 0.47 mm
  Upper Pedicel diameter: 1.55 ± 0.05 mm
  Upper Peduncle Length: 18.40 ± 0.72 mm
  Upper Peduncle diameter: 1.38 ± 0.05 mm
[9]
  Lower Pedicel Length: 7.33 ± 0.29 mm
  Lower Pedicel diameter: 1.55 ± 0.08 mm
  Lower Peduncle Length: 28.22 ± 3.07 mm
  Lower Peduncle diameter: 1.53 ± 0.06 mm
  Upper Pedicel Length: 7.50 ± 0.29 mm
  Upper Pedicel diameter: 1.49 ± 0.05 mm
  Upper Peduncle Length: 14.00 ± 1.00 mm
  Upper Peduncle diameter: 1.29 ± 0.03 mm
[10]
  Lower Pedicel Length: 8.20 ± 0.33 mm
  Lower Pedicel diameter: 1.49 ± 0.06 mm
  Lower Peduncle Length: 49.90 ± 4.2 mm
  Lower Peduncle diameter: 1.53 ± 0.05 mm
  Upper Pedicel Length: 8.10 ± 0.28 mm
  Upper Pedicel diameter: 1.40 ± 0.06 mm
  Upper Peduncle Length: 19.10 ± 0.75 mm
  Upper Peduncle diameter: 1.21 ± 0.04 mm
[11]
  Ratio of seed number on main stem to lateral stems: 3.3 ± 0.6
  Seed number per plant: 60.3 ± 3.2
  Seed weight per plant: 14.0 ± 0.9 g
  Weight per seed: 0.230 ± 0.004 g
  increase in seed yield (seed weight per plant) vs control: 61%
[12]
  Lower Pedicel Length: 9.11 ± 0.26 mm
  Lower Pedicel diameter: 1.59 ± 0.06 mm
  Lower Peduncle Length: 61.33 ± 4.13 mm
  Lower Peduncle diameter: 1.60 ± 0.08 mm
  Upper Pedicel Length: 8.83 ± 0.17 mm
  Upper Pedicel diameter: 1.56 ± 0.08 mm
  Upper Peduncle Length: 16.00 ± 1.46 mm
  Upper Peduncle diameter: 1.33 ± 0.04 mm
[13]
  Lower Pedicel Length: 8.70 ± 0.45 mm
  Lower Pedicel diameter: 1.58 ± 0.04 mm
  Lower Peduncle Length: 63.10 ± 4.95 mm
  Lower Peduncle diameter: 1.53 ± 0.05 mm
  Upper Pedicel Length: 8.70 ± 0.37 mm
  Upper Pedicel diameter: 1.49 ± 0.03 mm
  Upper Peduncle Length: 19.90 ± 1.12 mm
  Upper Peduncle diameter: 1.31 ± 0.03 mm
[14]
  Lower Pedicel Length: 7.17 ± 0.48 mm
  Lower Pedicel diameter: 1.41 ± 0.07 mm
  Lower Peduncle Length: 29.50 ± 2.63 mm
  Lower Peduncle diameter: 1.39 ± 0.02 mm
[15]
  Lower Pedicel Length: 9.00 ± 0.44 mm
  Lower Pedicel diameter: 1.22 ± 0.09 mm
  Lower Peduncle Length: 40.22 ± 3.64 mm
  Lower Peduncle diameter: 1.41 ± 0.05 mm
  Upper Pedicel Length: 8.88 ± 0.44 mm
  Upper Pedicel diameter: 1.11 ± 0.10 mm
  Upper Peduncle Length: 18.13 ± 0.88 mm
  Upper Peduncle diameter: 1.03 ± 0.08 mm
[16]
  Ratio of seed number on main stem to lateral stems: 1.1 ± 0.1
  Seed number plant: 50.6 ± 5.0
  Seed weight per per plant: 13.7 ± 1.2 g
  Weight per seed: 0.274 ± 0.005 g
[17]
  Lower Pedicel Length: 8.11 ± 0.11 mm
  Lower Pedicel diameter: 1.68 ± 0.07 mm
  Lower Peduncle Length: 47.11 ± 5.35 mm
  Lower Peduncle diameter: 1.58 ± 0.05 mm
  Upper Pedicel Length: 8.00 ± 0.29 mm
  Upper Pedicel diameter: 1.55 ± 0.06 mm
  Upper Peduncle Length: 16.33 ± 0.82 mm
  Upper Peduncle diameter: 1.32 ± 0.04 mm
[18]
  Lower Pedicel Length: 8.80 ± 0.33 mm
  Lower Pedicel diameter: 1.50 ± 0.04 mm
  Lower Peduncle Length: 53.50 ± 5.01 mm
  Lower Peduncle diameter: 1.45 ± 0.04 mm
  Upper Pedicel Length: 8.60 ± 0.37 mm
  Upper Pedicel diameter: 1.39 ± 0.04 mm
  Upper Peduncle Length: 18.10 ± 0.74 mm
  Upper Peduncle diameter: 1.16 ± 0.03 mm
[19]
  Lower Pedicel Length: 7.67 ± 0.37 mm
  Lower Pedicel diameter: 1.58 ± 0.06 mm
  Lower Peduncle Length: 39.22 ± 3.35 mm
  Lower Peduncle diameter: 1.52 ± 0.05 mm
  Upper Pedicel Length: 7.00 ± 0.32 mm
  Upper Pedicel diameter: 1.56 ± 0.08 mm
  Upper Peduncle Length: 16.20 ± 1.74 mm
  Upper Peduncle diameter: 1.38 ± 0.09 mm
[20]
  Lower Pedicel Length: 8.56 ± 0.41 mm
  Lower Pedicel diameter: 1.35 ± 0.04 mm
  Lower Peduncle Length: 47.11 ± 4.73 mm
  Lower Peduncle diameter: 1.53 ± 0.03 mm
  Upper Pedicel Length: 8.67 ± 0.29 mm
  Upper Pedicel diameter: 1.25 ± 0.05 mm
  Upper Peduncle Length: 20.44 ± 1.00 mm
  Upper Peduncle diameter: 1.13 ± 0.05 mm
[21]
  Ratio of seed number on main stem to lateral stems: 2.9 ± 0.6
  Seed number per plant: 63.3 ± 4.6
  Seed weight per plant: 14.9 ± 0.9 g
  Weight per seed: 0.238 ± 0.006 g
  increase in seed yield (seed weight per plant) vs control: 71%
[22]
  Lower Pedicel Length: 8.80 ± 0.29 mm
  Lower Pedicel diameter: 1.47 ± 0.05 mm
  Lower Peduncle Length: 60.40 ± 5.23 mm
